Experimental data as given in patent publication EP0406111A1, “Substituted arylamines and heteroarylamines, process for their preparation and pharmaceutical composition containing them” (SOCIETE DE CONSEILS DE […] D'APPLICATIONS SCIENTIFIQUES …, priority 1989, dated 1991).
Read-outs that look alike come from different tables or passages of the source.

Experiments:
[1] = Toxicity test in mice, 100 mg/kg intraperitoneal; design: species or system souris; conditions: mouse, in vivo, ip, 100 mg/kg i.p., read-out: Toxicité à 100 mg/kg i.p. % mortalité à 48 h
Method: Le tableau 6 annexé illustre les résultats d'essais de toxicité effectués chez la souris sur les amines substituées de l'invention à une dose de 100mg/kg par voie intrapéritonéale.

[2] = biological target: T1, capture de (³H)dopamine par les synaptosomes striataux de rat (Rattus norvegicus, UniProt P23977); test: biochemical
T1 construct: Les culots résultants P2 contenant les synaptosomes bruts sont ensuite utilisés sans purification supplémentaire; from tissue; host or cells: Wistar rat striatum, crude synaptosomes (P2 pellet)
Method: Ce test est pratiqué selon la méthode utilisée par Vignon et Lazdunski en opérant de la façon suivante. Des rats Wistar pesant 200-250g sont tués par dislocation cervicale. Leurs cerveaux sont rapidement prélevés et les striata sont dissé-qués sur la glace. Les striata sont ensuite homogéné-isés (10 allers-retours) avec un homogénéisant Potter dans 50 volumes de tampon Tris HCl 10 mM à pH 7,4 contenant 0,32 M de sucrose. L'homogénat est ensuite centrifugé à 1000g pendant 10min à 4°C, puis le surnageant obtenu est recentrifugé à 10000g pendant 20min à 4°C. Les culots résultants P2 contenant les synaptosomes bruts sont ensuite utilisés sans purification supplémentaire.
On ajoute alors de la dopamine tritiée ((³H)DA, Amersham) à une concentration finale de 5 nM pendant 5 min à 30°C, et on interrompt sa capture par filtration de 150 µl du milieu d'incubation sur des filtres en fibres de verre GF/B (Whatman). La radioactivité retenue par les filtres est mesurée dans un compteur à scintillation liquide (LKB)avec 3 ml d'ACS (Amersham) comme scintillant. La capture non spécifique est mesurée à 4°C dans des incubations parallèles : elle est ensuite sous-traite de la capture totale mesurée à 30°C.
Les composés à tester sont solubilisés au départ dans de l'eau à une concentration de 1mM et les autres concentrations sont obtenues par des dilutions successives de cette solution mère dans l'eau.

souris Swiss = test: Locomotor activity of mice in the Boissier-Simon actimeter (Example 38); assay type: in vivo; conditions: for Activité locomotrice Variation (%) par rapport aux témoins (100%) pour la dose 10 mg/kg,i.p.: 30 min after administration, beams crossed from 20th to 35th minute; for Activité locomotrice, effect compared with BTCP: 10 mg/kg i.p.
Method: Exemple 38 : Mesure de l'activité locomotrice.
L'activité locomotrice de souris Swiss (mâles CD1, 25-30 g, Charles River, St Aubin lès Elbeuf, France) est mesurée dans l'actimètre Boissier-Simon (Apelex, Bagneux, France).
30 minutes après l'administration des composés à tester (10 mg/kg, i.p.), les souris sont introduites dans des cages individuelles en Plexiglass (L = 26 cm, l = 20 cm, h = 10 cm), équipées de deux cellules photoélectriques situées à 1 cm au-dessus du plancher. Chaque cellule est reliée à un compteur électromécanique. "L'activité locomotrice" correspond au nombre de rayons traversés, de la 20ème à la 35ème minute après introduction dans les cages d'actimétrie.

[3] = biological target: T2, complexe de recapture de la dopamine (Rattus norvegicus, UniProt P23977); test: biochemical; assay type: binding; conditions: for IC50: read-out: [3H] BTCP IC50
T2 construct: expériences de compétition sur les membranes de striatum préparées comme ci-dessus; from tissue; host or cells: rat striatal membranes
Method: Exemple 35 : Affinité des composés pour les sites de liaison de la (³H)BTCP sur les membranes striatales de cerveaux de rats.
Les striata de cerveaux de rats rapidement disséqués dans la glace sont homogénéisés avec un ultra turax pendant 30 s (position 6) dans 50 volumes d'une solution de sucrose 0,32 M tamponnée par du Tris-HCl 10 mM à pH = 7,4. L'homogénat est centrifugé à 4°C à 1000g pendant 10 mln, puis le surnageant obtenu est centrifugé à 40000 g à 4°C pendant 30 min et les culots obtenus sont repris dans 1 ml de tampon par striatum.
L'affinité des composés pour le complexe de recapture de la dopamine est déterminée par des expériences de compétition sur les membranes de striatum préparées comme ci-dessus. Le ligand radioactif utilisé est la (³H)BTCP (Service des Molécules Marquées du CEA, Saclay France) à 55Ci/mmol.
Après 90 min à 4°C, 3 aliquots de 250 µl sont filtrés sous vide sur des filtres de fibre de verre GF/B (Whatman). La liaison non spécifique est obtenue dans des expériences parallè-les réalisées en présence de 10 µM de BTCP non marquée. Elle est soustraite de la liaison totale pour obtenir la liaison spécifique.

récepteur de la PCP = test: Competition binding at the (3H)TCP sites on rat brain homogenates (Example 36); conditions: 1 nM (3H)TCP, 30 min at 25°C
Text: Exemple 36 : Affinité des composés pour les sites de liaison de la (³H)TCP sur les homogénats de cerveaux de rats.
Dans cet essai on mesure les affinités des composés pour le récepteur de la PCP par des expériences de compétition sur des homogénats de cerveaux de rats. Le ligand radioactif utilisé est la (³H)TCP à une activité spécifique de 62 Ci/mmol (Service des Molécules Marquées, CEA Saclay France).
Les cerveaux de rats (sans le cervelet et le tronc cérébral) sont homogénéisés à l'ultra turax dans 20 volumes de tampon Hepes-Tris 50 mM, pH 7,7. Après centrifugation pendant 30 min à 15000 g le culot est repris dans le même volume de tampon et recentrifugé dans les mêmes conditions. Le culot final est repris dans du tampon Hepes-Tris 50 mM, pH 7,7 de façon à obtenir une concentration en protéine de 6 à 8 mg/ml.
Les expériences de compétition sont réalisées en incubant pendant 30 min les membranes (concentration finale en protéine : 0,6 à 0,8 mg/ml) en milieu tampon 5 mM Hepes-Tris, pH 7,7 à 25°C, en présence d'une concentration fixe de ligand tritié (1 nM)et de concentrations croissantes de composés à tester. Trois échantillons de 600 µL sont ensuite filtrés sur filtres de fibres de verre GF/B prétraités par du PEI (polyéthylénimine) à 0,1%. Les filtres sont rincés avec 3x5ml de tampon Tris-HCl 10 mM, NaCl 100 mM et la radioactivité retenue est mesurée dans un compteur à scintillation liquide. La liaison non spécifique est obtenue en présence de TCP […].

[4] = rat striatal synaptosomes, 5 nM (3H)DA, 5 min at 30°C, read-out: [3H] DA IC50
[5] = rat striatal membranes, 0,2 nM (3H)BTCP, 90 min at 4°C
[6] = ratio of IC50 at the PCP receptor to IC50 at the dopamine reuptake complex

T1 sequence (P23977 whole entry): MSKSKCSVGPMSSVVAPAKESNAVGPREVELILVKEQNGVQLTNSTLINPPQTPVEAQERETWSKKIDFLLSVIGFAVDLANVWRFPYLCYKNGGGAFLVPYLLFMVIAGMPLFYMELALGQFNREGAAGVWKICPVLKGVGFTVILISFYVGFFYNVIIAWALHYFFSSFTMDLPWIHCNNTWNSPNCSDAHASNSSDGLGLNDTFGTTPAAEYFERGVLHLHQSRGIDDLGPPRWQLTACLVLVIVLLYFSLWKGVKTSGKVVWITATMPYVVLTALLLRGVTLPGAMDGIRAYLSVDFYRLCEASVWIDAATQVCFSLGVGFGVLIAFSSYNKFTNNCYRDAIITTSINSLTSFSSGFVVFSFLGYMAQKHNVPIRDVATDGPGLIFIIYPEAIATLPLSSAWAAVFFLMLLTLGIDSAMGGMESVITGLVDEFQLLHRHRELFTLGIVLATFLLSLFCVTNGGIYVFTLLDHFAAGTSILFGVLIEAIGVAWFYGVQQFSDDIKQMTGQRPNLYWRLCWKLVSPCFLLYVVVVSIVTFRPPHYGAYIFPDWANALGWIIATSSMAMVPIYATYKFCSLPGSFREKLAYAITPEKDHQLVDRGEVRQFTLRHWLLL
T2 sequence (P23977 whole entry, one chain of several): as the sequence (P23977 whole entry) above

Compound: C[C@H]1CC[C@](c2cc3ccccc3s2)(N2CCCCC2)CC1 [composé n^o 20, (benzo(b)thiophényl-2)-1-t-méthyl-4-r-(pipéridino-1)-1 cyclohexane]
- mortality at 48 h [1]: 0%
- IC50 [2, 4]: 0.0214 µM
- Activité locomotrice Variation (%) par rapport aux témoins (100%) pour la dose 10 mg/kg,i.p. (souris Swiss): +40±22%
- IC50 [3, 5]: 0.0207 µM
- Sélectivité IC50[^3H]TCP / IC50[^3H]BTCP [3, 6]: 5410
- IC50 (récepteur de la PCP): 112 µM

Compound: BrCC1CCCN(C2(c3cc4ccccc4s3)CCCCC2)C1 (stereo not drawn) [composé n^o 10, (benzo(b)thiophényl-2)-1 ((bromométhyl-3 pipéridino)-1)-1 cyclohexane]
- mortality at 48 h [1]: 0%
- IC50 [2, 4]: 0.0571 µM
- Activité locomotrice Variation (%) par rapport aux témoins (100%) pour la dose 10 mg/kg,i.p. (souris Swiss): +30±19%
- IC50 [3, 5]: 0.0345 µM
- Sélectivité IC50[^3H]TCP / IC50[^3H]BTCP [3, 6]: >>2898
- IC50 (récepteur de la PCP): > 100 µM

Compound: CC1CC(C)CN(C2(c3cc4ccccc4s3)CCCCC2)C1 (stereo not drawn) [composé n^o 6, (benzo(b)thiophényl-2)-1 ((diméthyl-3,5 pipéridino)-1)-1 cyclohexane]
- mortality at 48 h [1]: 10%
- IC50 [2, 4]: 0.0149 µM
- Activité locomotrice Variation (%) par rapport aux témoins (100%) pour la dose 10 mg/kg,i.p. (souris Swiss): +84±12%
- IC50 [3, 5]: 0.0127 µM
- Sélectivité IC50[^3H]TCP / IC50[^3H]BTCP [3, 6]: >>7874
- IC50 (récepteur de la PCP): > 100 µM

Compound: c1ccc2oc(C3(N4CCCCC4)CCCCC3)cc2c1 [composé n^o 4, (benzo(b)furannyl-2)-1 (pipéridino-1)-1 cyclohexane]
- mortality at 48 h [1]: 10%
- IC50 [2, 4]: 0.0338 µM
- Activité locomotrice, effect compared with BTCP (souris Swiss): effet supérieur à celui du BTCP
- Activité locomotrice Variation (%) par rapport aux témoins (100%) pour la dose 10 mg/kg,i.p. (souris Swiss): +169±19%
- IC50 [3, 5]: 0.0191 µM
- Sélectivité IC50[^3H]TCP / IC50[^3H]BTCP [3, 6]: 2094
- IC50 (récepteur de la PCP): 40 µM

Compound: c1ccc2sc(C3(N4CCCCC4)CCCCC3)cc2c1 [BTCP, (benzo(b)thiophényl-2)-1 (pipéridino -1) cyclohexane, reference compound]
- mortality at 48 h [1]: 0%
- IC50 [2]: 0.0139 µM
- Activité locomotrice Variation (%) par rapport aux témoins (100%) pour la dose 10 mg/kg,i.p. (souris Swiss): +122±12%
- Sélectivité IC50[^3H]TCP / IC50[^3H]BTCP ([3]; rat): 2380
- IC50 [3]: 0.0084 µM
- IC50 (récepteur de la PCP): 20 µM

Compound: CC1CCCN(C2(c3cc4ccccc4s3)CCCCC2)C1 (stereo not drawn) [composé n^o 2, (benzo(b)thiophényl-2)-1 ((méthyl-3 pipéridino)-1)-1 cyclohexane]
- mortality at 48 h [1]: 10%
- IC50 [2, 4]: 0.0093 µM
- Activité locomotrice, effect compared with BTCP (souris Swiss): effet supérieur à celui du BTCP
- Activité locomotrice Variation (%) par rapport aux témoins (100%) pour la dose 10 mg/kg,i.p. (souris Swiss): +160±25%
- IC50 [3, 5]: 0.0133 µM
- Sélectivité IC50[^3H]TCP / IC50[^3H]BTCP [3, 6]: 3910
- IC50 (récepteur de la PCP): 52 µM

Compound: C[C@H]1CC[C@@](c2cc3ccccc3s2)(N2CCCCC2)CC1 [composé n^o 21, (benzo(b)thiophényl-2)-1 c-méthyl-4-r-(pipéridino-1)-1 cyclohexane]
- mortality at 48 h [1]: 0%
- IC50 [2, 4]: 0.0094 µM
- Activité locomotrice, effect compared with BTCP (souris Swiss): effet supérieur à celui du BTCP
- Activité locomotrice Variation (%) par rapport aux témoins (100%) pour la dose 10 mg/kg,i.p. (souris Swiss): +175±27%
- Sélectivité pour le complexe de recapture de la dopamine comparé au récepteur de la PCP, result in words [3]: très bons résultats
- IC50 [3, 5]: 0.0069 µM
- Sélectivité IC50[^3H]TCP / IC50[^3H]BTCP [3, 6]: >>14493
- IC50 (récepteur de la PCP): > 100 µM

Compound: OC1CCN(C2(c3cc4ccccc4s3)CCCCC2)CC1 [composé 26, (benzo(b)thiophényl-2)-1( (ol-4-pipéridino)-1)-1 cyclohexane]
- Activité locomotrice Variation (%) par rapport aux témoins (100%) pour la dose 10 mg/kg,i.p. (souris Swiss): +252±45%
- IC50 [3, 5]: 0.0159 µM
- Sélectivité IC50[^3H]TCP / IC50[^3H]BTCP [3, 6]: 2006
- IC50 (récepteur de la PCP): 31.9 µM

Compound: CCCN(CCC)C1(c2cc3ccccc3s2)CCCCC1 [composé no 3, (benzo(b)thiophényl-2)-1 (dipropylamino-1)-1 cyclohexane]
- mortality at 48 h [1]: 0%
- IC50 [2, 4]: 0.0129 µM
- Activité locomotrice Variation (%) par rapport aux témoins (100%) pour la dose 10 mg/kg,i.p. (souris Swiss): +53±23%
- Sélectivité pour le complexe de recapture de la dopamine comparé au récepteur de la PCP, result in words [3]: très bons résultats
- IC50 [3, 5]: 0.0072 µM
- Sélectivité IC50[^3H]TCP / IC50[^3H]BTCP [3, 6]: 58889
- IC50 (récepteur de la PCP): 424 µM
